Measured values published in US11000033B2, “Ketone or oxime compound, and herbicide” (NISSAN CHEMICAL CORPORATION, priority 2014, dated 2021).

Assays:
Assay type in all cases: in vivo
Stellaria media = assay: Test Example 5: herbicidal effect by foliage application, plastic box (symbol P); conditions: 320 g/ha, 3 weeks after application
Procedure, shortened: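 Greenhouse foliar test: seedlings at 14 days, grown 25° C. to 30° C. in sterilized diluvial soil; compound applied as an aqueous dilution of an emulsion; response read 3 weeks after spraying.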

Cyperus difformis = assay: Test Example 3: herbicidal effect by foliage application, Wagner pot (symbol E); conditions: application herbicide amount 320 g/ha
Procedure, shortened: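 Scoring took place 3 weeks after application, using fixed criteria. Plants had been raised from seed for 14 days at 25 to 30 °C in submerged alluvial soil before a diluted emulsion of the test compound was sprayed uniformly on the leaves.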

Digitaria ciliaris = assay: Test Example 4: herbicidal effect by soil treatment (symbol F); conditions: application herbicide amount 320 g/ha
Procedure, shortened: (§1)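 Seeds were sown in sterilized diluvial soil, covered with about 1.5 cm of soil, and the soil surface was sprayed with a water-diluted emulsion of the compound at a predetermined rate. Plants grew in a greenhouse at 25° C. to 30° C.; effects were scored visually 3 weeks after application.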

rapeseed = assay: Test Example 4: effect on crop by soil treatment (symbol g); conditions: application herbicide amount 320 g/ha
Procedure, shortened: (§2)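 Sterilized diluvial soil, spot sowing, ~1.5 cm soil cover; greenhouse 25–30° C.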

[1] = tested on: Echinochloa oryzacola Vasing.; assay: Test Example 2: herbicidal activity, application during weed generation in submerged conditions (symbol A); conditions: Table 23; application herbicide amount 320 g/ha; grade 0-5 by criteria of Test Example 1
Procedure, shortened: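 Read-out: herbicidal effect on each species rated on a visual scale 3 weeks after treatment. Plants were raised together from seed in flooded alluvial soil (4 cm water) at 25° C. to 30° C. and treated at one to two leaves by water-surface application of diluted emulsion.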

transplanted rice plant = assay: Test Example 1: effect on crop, application before weed generation in submerged conditions (symbol a); conditions: application herbicide amount 320 g/ha
Procedure, shortened: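 Rice at 2.5 leaf stage transplanted into submerged soil (4 cm depth) sown with three weed species; herbicide applied before weed emergence.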

corn = assay: Test Example 5: effect on crop by foliage application, plastic box (symbol c); conditions: 320 g/ha, 3 weeks after application
Procedure, shortened: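 Greenhouse culture at 25° C. to 30° C. followed spot-like sowing into sterilized diluvial soil, with seed covered by roughly 1.5 cm of soil.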

Avena fatua = assay: Test Example 4: herbicidal effect by soil treatment (symbol I); conditions: application herbicide amount 320 g/ha
Procedure, shortened: as §1

soybean = assay: Test Example 4: effect on crop by soil treatment (symbol d); conditions: application herbicide amount 320 g/ha
Procedure, shortened: as §2

wheat = assay: Test Example 4: effect on crop by soil treatment (symbol e); conditions: application herbicide amount 320 g/ha
Procedure, shortened: as §2

rice = assay: Test Example 4: effect on crop by soil treatment (symbol b); conditions: application herbicide amount 320 g/ha
Procedure, shortened: as §2

Row | Structure (SMILES) | P: Stellaria media, herbicidal effect grade (Stellaria media) | herbicidal effect on E, grade 0-5 (Cyperus difformis) | F (Digitaria ciliaris) herbicidal effect grade (Digitaria ciliaris) | g (rapeseed) effect on crop grade (rapeseed) | Herbicidal effect grade, A: Echinochloa oryzacola Vasing. [1] | Effect grade on crop, a: transplanted rice plant (transplanted rice plant) | c: corn, effect on crop grade (corn) | I (Avena fatua) herbicidal effect grade (Avena fatua) | d (soybean) effect on crop grade (soybean) | e (wheat) effect on crop grade (wheat) | b (directly sowed rice plant) effect on crop grade (rice)
1 | CC(CC1CC(O)=C(c2c(C)cc(C)cc2C)C1=O)=NOCc1ccccc1F (stereo not shown) [1-026] | 1 (Herbicidal ratio of 5% or higher and lower than 20%) | 5 (Herbicidal ratio of 90% or more (almost completely withered)) | 5 (Herbicidal ratio of 90% or more (almost completely withered)) | 3 (Herbicidal ratio of 40% or higher and lower than 70%) | 5 (Herbicidal ratio of 90% or more (almost completely withered)) | 5 (Herbicidal ratio of 90% or more (almost completely withered)) | 3 (Herbicidal ratio of 40% or higher and lower than 70%) | 3 (Herbicidal ratio of 40% or higher and lower than 70%) | 0 (Herbicidal ratio of 5% or lower (almost no effect)) | 2 (Herbicidal ratio of 20% or higher and lower than 40%) | 4 (Herbicidal ratio of 70% or higher and lower than 90%)
2 | CON=C(C)CC1CC(OC(=O)C(C)(C)OC(C)=O)=C(c2c(C)cc(C)cc2C)C1=O (stereo not shown) [1-034] | – | 5 (Herbicidal ratio of 90% or more (almost completely withered)) | 5 (Herbicidal ratio of 90% or more (almost completely withered)) | 5 (Herbicidal ratio of 90% or more (almost completely withered)) | 5 (Herbicidal ratio of 90% or more (almost completely withered)) | 5 (Herbicidal ratio of 90% or more (almost completely withered)) | 4 (Herbicidal ratio of 70% or higher and lower than 90%) | 5 (Herbicidal ratio of 90% or more (almost completely withered)) | 0 (Herbicidal ratio of 5% or lower (almost no effect)) | 4 (Herbicidal ratio of 70% or higher and lower than 90%) | 5 (Herbicidal ratio of 90% or more (almost completely withered))
3 | CON=C(C)CC1CC(OC(=O)C(C)(C)F)=C(c2c(C)cc(C)cc2C)C1=O (stereo not shown) [1-039] | 3 (Herbicidal ratio of 40% or higher and lower than 70%) | 5 (Herbicidal ratio of 90% or more (almost completely withered)) | 5 (Herbicidal ratio of 90% or more (almost completely withered)) | 4 (Herbicidal ratio of 70% or higher and lower than 90%) | 5 (Herbicidal ratio of 90% or more (almost completely withered)) | 5 (Herbicidal ratio of 90% or more (almost completely withered)) | 4 (Herbicidal ratio of 70% or higher and lower than 90%) | 1 (Herbicidal ratio of 5% or higher and lower than 20%) | 0 (Herbicidal ratio of 5% or lower (almost no effect)) | 4 (Herbicidal ratio of 70% or higher and lower than 90%) | 5 (Herbicidal ratio of 90% or more (almost completely withered))
4 | COCC(CC1CC(O)=C(c2c(C)cc(C)cc2C)C1=O)=NOC (stereo not shown) [1-040] | 0 (Herbicidal ratio of 5% or lower (almost no effect)) | 4 (Herbicidal ratio of 70% or higher and lower than 90%) | 4 (Herbicidal ratio of 70% or higher and lower than 90%) | 3 (Herbicidal ratio of 40% or higher and lower than 70%) | 4 (Herbicidal ratio of 70% or higher and lower than 90%) | 4 (Herbicidal ratio of 70% or higher and lower than 90%) | 3 (Herbicidal ratio of 40% or higher and lower than 70%) | 3 (Herbicidal ratio of 40% or higher and lower than 70%) | 0 (Herbicidal ratio of 5% or lower (almost no effect)) | 0 (Herbicidal ratio of 5% or lower (almost no effect)) | 5 (Herbicidal ratio of 90% or more (almost completely withered))
5 | CON=C(C)CC1CC(OC(=O)C(C)(C)Oc2ccc(Cl)cc2)=C(c2c(C)cc(C)cc2C)C1=O (stereo not shown) [1-051] | 3 (Herbicidal ratio of 40% or higher and lower than 70%) | 5 (Herbicidal ratio of 90% or more (almost completely withered)) | 5 (Herbicidal ratio of 90% or more (almost completely withered)) | 4 (Herbicidal ratio of 70% or higher and lower than 90%) | 5 (Herbicidal ratio of 90% or more (almost completely withered)) | 5 (Herbicidal ratio of 90% or more (almost completely withered)) | 5 (Herbicidal ratio of 90% or more (almost completely withered)) | 3 (Herbicidal ratio of 40% or higher and lower than 70%) | 3 (Herbicidal ratio of 40% or higher and lower than 70%) | 2 (Herbicidal ratio of 20% or higher and lower than 40%) | 5 (Herbicidal ratio of 90% or more (almost completely withered))
6 | CC(CC1CC(O)=C(c2c(C)cc(C)cc2C)C1=O)=NOC(C)C (stereo not shown) [1-052] | 0 (Herbicidal ratio of 5% or lower (almost no effect)) | 5 (Herbicidal ratio of 90% or more (almost completely withered)) | 5 (Herbicidal ratio of 90% or more (almost completely withered)) | 3 (Herbicidal ratio of 40% or higher and lower than 70%) | 5 (Herbicidal ratio of 90% or more (almost completely withered)) | 5 (Herbicidal ratio of 90% or more (almost completely withered)) | 4 (Herbicidal ratio of 70% or higher and lower than 90%) | 4 (Herbicidal ratio of 70% or higher and lower than 90%) | 0 (Herbicidal ratio of 5% or lower (almost no effect)) | 5 (Herbicidal ratio of 90% or more (almost completely withered)) | 5 (Herbicidal ratio of 90% or more (almost completely withered))
7 | CC(CC1CC(O)=C(c2c(C)cc(C)cc2C)C1=O)=NOC(C)(C)C (stereo not shown) [1-053] | 0 (Herbicidal ratio of 5% or lower (almost no effect)) | 4 (Herbicidal ratio of 70% or higher and lower than 90%) | 5 (Herbicidal ratio of 90% or more (almost completely withered)) | 3 (Herbicidal ratio of 40% or higher and lower than 70%) | 4 (Herbicidal ratio of 70% or higher and lower than 90%) | 5 (Herbicidal ratio of 90% or more (almost completely withered)) | 3 (Herbicidal ratio of 40% or higher and lower than 70%) | 0 (Herbicidal ratio of 5% or lower (almost no effect)) | 0 (Herbicidal ratio of 5% or lower (almost no effect)) | 0 (Herbicidal ratio of 5% or lower (almost no effect)) | 5 (Herbicidal ratio of 90% or more (almost completely withered))
